Measurements reported in ChEMBL document CHEMBL5316329, “Structure-Based Optimization of 2,4,5-Trisubstituted Pyrimidines as Potent HIV-1 Non-Nucleoside Reverse Transcriptase Inhibitors: Exploiting the Tolerant Regions of the Non-Nucleoside Reverse Transcriptase Inhibitors' Binding Pocket” (J Med Chem, 2023).
pEC50, pIC50: −log10 of the molar value.

Test system: Human immunodeficiency virus 1
Test: Antiviral activity against wild-type HIV-1 IIIB infected in human MT4 cells assessed as virus-induced cytopathicity treated for 5 days by MTT assay
Type: functional, organism-based
Details: Human immunodeficiency virus 1, IIIB, MT4, 120 h

**Q.** With Cc1cc(/C=C/C#N)cc(C)c1Oc1nc(NC2CCN(Cc3ccc(S(N)(=O)=O)cc3)CC2)ncc1-c1ccccc1F as the compound, how does the pEC50 read?
**A.** Its pEC50 is 8.40.

**Q.** With Cc1cc(/C=C/C#N)cc(C)c1Oc1nc(NC2CCN(Cc3ccc(S(N)(=O)=O)cc3)CC2)ncc1-c1ccccc1N as the compound, how does the pEC50 read?
**A.** Its pEC50 is 8.24.

**Q.** With Cc1cc(/C=C/C#N)cc(C)c1Oc1nc(NC2CCN(Cc3ccc(S(C)(=O)=O)cc3)CC2)ncc1-c1ccc2c(c1)OCO2 as the compound, how does the pEC50 read?
**A.** The pEC50 was 8.26.

**Q.** With Cc1cc(/C=C/C#N)cc(C)c1Cc1nc(NC2CCN(Cc3ccc(S(N)(=O)=O)cc3)CC2)ncc1-c1cnc(N)nc1 as the compound, how does the pEC50 read?
**A.** The pEC50 was 8.35.

**Q.** With Cc1cc(/C=C/C#N)cc(C)c1Oc1nc(NC2CCN(Cc3ccc(S(C)(=O)=O)cc3)CC2)ncc1-c1cccc(F)c1 as the compound, how does the pEC50 read?
**A.** Its pEC50 is 8.14.

**Q.** With Cc1cc(/C=C/C#N)cc(C)c1Oc1nc(NC2CCN(Cc3ccc(C(N)=O)cc3)CC2)ncc1-c1ccc(F)cc1 as the compound, how does the pEC50 read?
**A.** Its pEC50 is 8.29.

**Q.** With Cc1cc(/C=C/C#N)cc(C)c1Oc1nc(NC2CCN(Cc3ccc(S(C)(=O)=O)cc3)CC2)ncc1-c1ccccc1N as the compound, how does the pEC50 read?
**A.** Its pEC50 is 8.23.

Test system: Human immunodeficiency virus 1
Test: Antiviral activity against NNRTI-resistant HIV-1 RES056 infected in human MT4 cells assessed as virus-induced cytopathicity treated for 5 days by MTT assay
Type: functional, organism-based
Details: Human immunodeficiency virus 1, RES056, MT4, 120 h

**Q.** With Cc1cc(/C=C/C#N)cc(C)c1Oc1nc(NC2CCN(Cc3ccc(S(N)(=O)=O)cc3)CC2)ncc1-c1ccccc1F as the compound, how does the pEC50 read?
**A.** The pEC50 was 7.00.

**Q.** With Cc1cc(/C=C/C#N)cc(C)c1Oc1nc(NC2CCN(Cc3ccc(S(N)(=O)=O)cc3)CC2)ncc1-c1ccccc1N as the compound, how does the pEC50 read?
**A.** Its pEC50 is 7.04.

**Q.** With Cc1cc(/C=C/C#N)cc(C)c1Oc1nc(NC2CCN(Cc3ccc(S(C)(=O)=O)cc3)CC2)ncc1-c1ccc2c(c1)OCO2 as the compound, how does the pEC50 read?
**A.** The pEC50 was 7.23.

**Q.** With Cc1cc(/C=C/C#N)cc(C)c1Cc1nc(NC2CCN(Cc3ccc(S(N)(=O)=O)cc3)CC2)ncc1-c1cnc(N)nc1 as the compound, how does the pEC50 read?
**A.** The pEC50 was 7.49.

**Q.** With Cc1cc(/C=C/C#N)cc(C)c1Oc1nc(NC2CCN(Cc3ccc(S(C)(=O)=O)cc3)CC2)ncc1-c1cccc(F)c1 as the compound, how does the pEC50 read?
**A.** The pEC50 was 6.91.

**Q.** With Cc1cc(/C=C/C#N)cc(C)c1Oc1nc(NC2CCN(Cc3ccc(C(N)=O)cc3)CC2)ncc1-c1ccc(F)cc1 as the compound, how does the pEC50 read?
**A.** Its pEC50 is 7.27.

**Q.** With Cc1cc(/C=C/C#N)cc(C)c1Oc1nc(NC2CCN(Cc3ccc(S(C)(=O)=O)cc3)CC2)ncc1-c1ccccc1N as the compound, how does the pEC50 read?
**A.** Its pEC50 is 6.96.

Test system: not listed separately
Test: Cytotoxicity against human MT4 cells assessed as reduction in cell viability treated for 5 days by MTT assay
Type: toxicity, cell-based
Details: time 5 day

**Q.** For Cc1cc(/C=C/C#N)cc(C)c1Oc1nc(NC2CCN(Cc3ccc(S(N)(=O)=O)cc3)CC2)ncc1-c1ccccc1F, which CC50 at 120 h is on record?
**A.** The CC50 at 120 h was 10900 nM.

**Q.** Which CC50 at 120 h does the source give for Cc1cc(/C=C/C#N)cc(C)c1Oc1nc(NC2CCN(Cc3ccc(S(N)(=O)=O)cc3)CC2)ncc1-c1ccccc1N here?
**A.** The CC50 at 120 h was 5490 nM.

**Q.** For Cc1cc(/C=C/C#N)cc(C)c1Oc1nc(NC2CCN(Cc3ccc(S(C)(=O)=O)cc3)CC2)ncc1-c1ccc2c(c1)OCO2, which CC50 at 120 h is on record?
**A.** The CC50 at 120 h was 4290 nM.

**Q.** With Cc1cc(/C=C/C#N)cc(C)c1Cc1nc(NC2CCN(Cc3ccc(S(N)(=O)=O)cc3)CC2)ncc1-c1cnc(N)nc1 as the compound, how does the CC50 at 120 h read?
**A.** The CC50 at 120 h was 2740 nM.

**Q.** For Cc1cc(/C=C/C#N)cc(C)c1Oc1nc(NC2CCN(Cc3ccc(S(C)(=O)=O)cc3)CC2)ncc1-c1cccc(F)c1, which CC50 at 120 h is on record?
**A.** Its CC50 at 120 h is 6650 nM.

**Q.** Which CC50 at 120 h does the source give for Cc1cc(/C=C/C#N)cc(C)c1Oc1nc(NC2CCN(Cc3ccc(C(N)=O)cc3)CC2)ncc1-c1ccc(F)cc1 here?
**A.** Its CC50 at 120 h is 8230 nM.

**Q.** With Cc1cc(/C=C/C#N)cc(C)c1Oc1nc(NC2CCN(Cc3ccc(S(C)(=O)=O)cc3)CC2)ncc1-c1ccccc1N as the compound, how does the CC50 at 120 h read?
**A.** Its CC50 at 120 h is 5110 nM.

Test system: not listed separately
Test: Selectivity index, ratio of CC50 for human MT4 cells to EC50 for NNRTI-resistant HIV-1 RES056 infected in human MT4 cells
Type: toxicity, cell-based
Details: read-out: Selectivity Index

**Q.** For Cc1cc(/C=C/C#N)cc(C)c1Oc1nc(NC2CCN(Cc3ccc(S(N)(=O)=O)cc3)CC2)ncc1-c1ccccc1F, which selectivity ratio is on record?
**A.** The selectivity ratio was 107.

**Q.** For Cc1cc(/C=C/C#N)cc(C)c1Oc1nc(NC2CCN(Cc3ccc(S(N)(=O)=O)cc3)CC2)ncc1-c1ccccc1N, which selectivity ratio is on record?
**A.** The selectivity ratio was 60.

**Q.** With Cc1cc(/C=C/C#N)cc(C)c1Oc1nc(NC2CCN(Cc3ccc(S(C)(=O)=O)cc3)CC2)ncc1-c1ccc2c(c1)OCO2 as the compound, how does the selectivity ratio read?
**A.** Its selectivity ratio is 73.

**Q.** With Cc1cc(/C=C/C#N)cc(C)c1Cc1nc(NC2CCN(Cc3ccc(S(N)(=O)=O)cc3)CC2)ncc1-c1cnc(N)nc1 as the compound, how does the selectivity ratio read?
**A.** Its selectivity ratio is 85.

**Q.** Which selectivity ratio does the source give for Cc1cc(/C=C/C#N)cc(C)c1Oc1nc(NC2CCN(Cc3ccc(S(C)(=O)=O)cc3)CC2)ncc1-c1cccc(F)c1 here?
**A.** Its selectivity ratio is 54.

**Q.** For Cc1cc(/C=C/C#N)cc(C)c1Oc1nc(NC2CCN(Cc3ccc(C(N)=O)cc3)CC2)ncc1-c1ccc(F)cc1, which selectivity ratio is on record?
**A.** The selectivity ratio was 154.

**Q.** For Cc1cc(/C=C/C#N)cc(C)c1Oc1nc(NC2CCN(Cc3ccc(S(C)(=O)=O)cc3)CC2)ncc1-c1ccccc1N, which selectivity ratio is on record?
**A.** The selectivity ratio was 47.

Biological target: Human immunodeficiency virus type 1 reverse transcriptase (Human immunodeficiency virus 1, UniProt Q72547)
Test: Inhibition of wild-type HIV-1 reverse transcriptase assessed as inhibition of biotin-dUTP incorporation
Details: not given

**Q.** With Cc1cc(/C=C/C#N)cc(C)c1Oc1nc(NC2CCN(Cc3ccc(S(N)(=O)=O)cc3)CC2)ncc1-c1ccccc1F as the compound, how does the pIC50 read?
**A.** Its pIC50 is 6.89.

**Q.** With Cc1cc(/C=C/C#N)cc(C)c1Oc1nc(NC2CCN(Cc3ccc(S(N)(=O)=O)cc3)CC2)ncc1-c1ccccc1N as the compound, how does the pIC50 read?
**A.** The pIC50 was 6.80.

**Q.** With Cc1cc(/C=C/C#N)cc(C)c1Oc1nc(NC2CCN(Cc3ccc(S(C)(=O)=O)cc3)CC2)ncc1-c1ccc2c(c1)OCO2 as the compound, how does the pIC50 read?
**A.** The pIC50 was 6.79.

**Q.** With Cc1cc(/C=C/C#N)cc(C)c1Cc1nc(NC2CCN(Cc3ccc(S(N)(=O)=O)cc3)CC2)ncc1-c1cnc(N)nc1 as the compound, how does the pIC50 read?
**A.** Its pIC50 is 7.07.

**Q.** With Cc1cc(/C=C/C#N)cc(C)c1Oc1nc(NC2CCN(Cc3ccc(S(C)(=O)=O)cc3)CC2)ncc1-c1cccc(F)c1 as the compound, how does the pIC50 read?
**A.** The pIC50 was 6.64.

**Q.** With Cc1cc(/C=C/C#N)cc(C)c1Oc1nc(NC2CCN(Cc3ccc(C(N)=O)cc3)CC2)ncc1-c1ccc(F)cc1 as the compound, how does the pIC50 read?
**A.** The pIC50 was 6.89.

**Q.** With Cc1cc(/C=C/C#N)cc(C)c1Oc1nc(NC2CCN(Cc3ccc(S(C)(=O)=O)cc3)CC2)ncc1-c1ccccc1N as the compound, how does the pIC50 read?
**A.** The pIC50 was 6.75.

Test system: not listed separately
Test: Selectivity index, ratio of CC50 for human MT4 cells to EC50 for wild-type HIV-1 IIIB infected in human MT4 cells
Type: toxicity, cell-based
Details: read-out: Selectivity Index

**Q.** For Cc1cc(/C=C/C#N)cc(C)c1Oc1nc(NC2CCN(Cc3ccc(S(N)(=O)=O)cc3)CC2)ncc1-c1ccccc1F, which selectivity ratio is on record?
**A.** Its selectivity ratio is 2760.

**Q.** Which selectivity ratio does the source give for Cc1cc(/C=C/C#N)cc(C)c1Oc1nc(NC2CCN(Cc3ccc(S(N)(=O)=O)cc3)CC2)ncc1-c1ccccc1N here?
**A.** Its selectivity ratio is 953.

**Q.** Which selectivity ratio does the source give for Cc1cc(/C=C/C#N)cc(C)c1Oc1nc(NC2CCN(Cc3ccc(S(C)(=O)=O)cc3)CC2)ncc1-c1ccc2c(c1)OCO2 here?
**A.** The selectivity ratio was 776.

**Q.** For Cc1cc(/C=C/C#N)cc(C)c1Cc1nc(NC2CCN(Cc3ccc(S(N)(=O)=O)cc3)CC2)ncc1-c1cnc(N)nc1, which selectivity ratio is on record?
**A.** The selectivity ratio was 617.

**Q.** Which selectivity ratio does the source give for Cc1cc(/C=C/C#N)cc(C)c1Oc1nc(NC2CCN(Cc3ccc(S(C)(=O)=O)cc3)CC2)ncc1-c1cccc(F)c1 here?
**A.** The selectivity ratio was 916.

**Q.** With Cc1cc(/C=C/C#N)cc(C)c1Oc1nc(NC2CCN(Cc3ccc(C(N)=O)cc3)CC2)ncc1-c1ccc(F)cc1 as the compound, how does the selectivity ratio read?
**A.** The selectivity ratio was 1600.

**Q.** With Cc1cc(/C=C/C#N)cc(C)c1Oc1nc(NC2CCN(Cc3ccc(S(C)(=O)=O)cc3)CC2)ncc1-c1ccccc1N as the compound, how does the selectivity ratio read?
**A.** Its selectivity ratio is 868.
